Like-named read-outs stand apart in the source and are kept apart here.
Experiments:
HT-29 cells = test: Protection against programmed necrosis of HT-29 cells (TNF α/Smac mimetic/Z-VAD-FMK, CCK8); type: cell-based; conditions: Homo sapiens
Fgr(h) = Fgr(h) (Homo sapiens (Human), UniProt P09769); test: Kinase Profiler 10 μM panel
Protocol: (§1) In vitro kinase assays were conducted using Kinase Profiler services provided by Eurofins. The experimental method was as follows: the small molecule compound to be tested (0.001-10 μM), the protein kinase to be tested were incubated with a buffer containing substrate, 10 mM magnesium acetate, and [γ-^33P-ATP], the reaction was started by adding Mg\TPmix, after incubation for a period of time at room temperature, a 3% phosphate solution was added to the buffer to stop the reaction. Subsequently, 10 μL of the reaction mixture was quantitatively pipetted onto P30 filter paper, which was washed three times with 75 mM phosphate solution and then once with methanol. The P30 filter paper was air-dried and scintillation fluid was added for scintillation counting.

GRK1(h) = GRK1(h) (Homo sapiens (Human), UniProt Q15835); test: Kinase Profiler 10 μM panel
Protocol: as §1

PI3KC2a(h) = PI3KC2a(h) (Homo sapiens (Human), UniProt O00443); test: Kinase Profiler 10 μM panel
Protocol: as §1

AMPKα1(h) = AMPKα1(h) (Homo sapiens (Human), UniProt Q13131); test: Kinase Profiler 10 μM panel
Protocol: as §1

AMPKα2(h) = AMPKα2(h) (Homo sapiens (Human), UniProt P54646); test: Kinase Profiler 10 μM panel
Protocol: as §1

PKBγ(h) = PKBγ(h) (Homo sapiens (Human), UniProt Q9Y243); test: Kinase Profiler 10 μM panel
Protocol: as §1

PKCγ(h) = PKCγ(h) (Homo sapiens (Human), UniProt P05129); test: Kinase Profiler 10 μM panel
Protocol: as §1

PKCη(h) = PKCη(h) (Homo sapiens (Human), UniProt P24723); test: Kinase Profiler 10 μM panel
Protocol: as §1

PKCμ(h) = PKCμ(h) (Homo sapiens (Human), UniProt Q15139); test: Kinase Profiler 10 μM panel
Protocol: as §1

CaMKI(h) = CaMKI(h) (Homo sapiens (Human), UniProt Q14012); test: Kinase Profiler 10 μM panel
Protocol: as §1

CaMKIγ(h) = CaMKIγ(h) (Homo sapiens (Human), UniProt Q96NX5); test: Kinase Profiler 10 μM panel
Protocol: as §1

PRKG2(h) = PRKG2(h) (Homo sapiens (Human), UniProt Q13237); test: Kinase Profiler 10 μM panel
Protocol: as §1

LRRK2(h) = LRRK2(h) (Homo sapiens (Human), UniProt Q5S007); test: Kinase Profiler 10 μM panel
Protocol: as §1

CDK17/cyclinY(h) = CDK17/cyclinY(h) (Homo sapiens (Human), UniProt Q00537); test: Kinase Profiler 10 μM panel
Protocol: as §1

Ret(V804M)(h) = Ret(V804M)(h) (Homo sapiens (Human), UniProt P07949, V804M); test: Kinase Profiler 10 μM panel
Protocol: as §1

SAPK2a(T106M)(h) = SAPK2a(T106M)(h) (Homo sapiens (Human), UniProt Q16539, T106M); test: Kinase Profiler 10 μM panel
Protocol: as §1

MELK(h) = MELK(h) (Homo sapiens (Human), UniProt Q14680); test: Kinase Profiler 10 μM panel
Protocol: as §1

Mer(h) = Mer(h) (Homo sapiens (Human), UniProt Q12866); test: Kinase Profiler 10 μM panel
Protocol: as §1

SGK3(h) = SGK3(h) (Homo sapiens (Human), UniProt Q96BR1); test: Kinase Profiler 10 μM panel
Protocol: as §1

cKit(h) = cKit(h) (Homo sapiens (Human), UniProt P10721); test: Kinase Profiler 10 μM panel
Protocol: as §1

CLIK1(h) = CLIK1(h) (Homo sapiens (Human), UniProt Q8TDR2); test: Kinase Profiler 10 μM panel
Protocol: The experimental method was as follows: the small molecule compound to be tested (0.001-10 μM), the protein kinase to be tested were incubated with a buffer containing substrate, 10 mM magnesium acetate, and [γ-^33P-ATP], the reaction was started by adding Mg\TPmix, after incubation for a period of time at room temperature, a 3% phosphate solution was added to the buffer to stop the reaction. Subsequently, 10 μL of the reaction mixture was quantitatively pipetted onto P30 filter paper, which was washed three times with 75 mM phosphate solution and then once with methanol. The P30 filter paper was air-dried and scintillation fluid was added for scintillation counting.

CLK2(h) = CLK2(h) (Homo sapiens (Human), UniProt P49760); test: Kinase Profiler 10 μM panel
Protocol: as §1

TNIK(h) = TNIK(h) (Homo sapiens (Human), UniProt Q9UKE5); test: Kinase Profiler 10 μM panel
Protocol: as §1

EphA8(h) = EphA8(h) (Homo sapiens (Human), UniProt P29322); test: Kinase Profiler 10 μM panel
Protocol: as §1

PDHK4(h) = PDHK4(h) (Homo sapiens (Human), UniProt Q16654); test: Kinase Profiler 10 μM panel
Protocol: as §1

PEK(h) = PEK(h) (Homo sapiens (Human), UniProt Q9NZJ5); test: Kinase Profiler 10 μM panel
Protocol: as §1

FGFR2(h) = FGFR2(h) (Homo sapiens (Human), UniProt P21802); test: Kinase Profiler 10 μM panel
Protocol: as §1

[1] = TNF α/Smac mimetic/Z-VAD-FMK induced 24 h, CCK8, read-out: HT-29 (EC50)
[2] = TSZ-induced, FIG. 3, read-out: EC50 value, programmed necrosis model of HT-29

Sequence of PEK(h) (Q9NZJ5 30-1116): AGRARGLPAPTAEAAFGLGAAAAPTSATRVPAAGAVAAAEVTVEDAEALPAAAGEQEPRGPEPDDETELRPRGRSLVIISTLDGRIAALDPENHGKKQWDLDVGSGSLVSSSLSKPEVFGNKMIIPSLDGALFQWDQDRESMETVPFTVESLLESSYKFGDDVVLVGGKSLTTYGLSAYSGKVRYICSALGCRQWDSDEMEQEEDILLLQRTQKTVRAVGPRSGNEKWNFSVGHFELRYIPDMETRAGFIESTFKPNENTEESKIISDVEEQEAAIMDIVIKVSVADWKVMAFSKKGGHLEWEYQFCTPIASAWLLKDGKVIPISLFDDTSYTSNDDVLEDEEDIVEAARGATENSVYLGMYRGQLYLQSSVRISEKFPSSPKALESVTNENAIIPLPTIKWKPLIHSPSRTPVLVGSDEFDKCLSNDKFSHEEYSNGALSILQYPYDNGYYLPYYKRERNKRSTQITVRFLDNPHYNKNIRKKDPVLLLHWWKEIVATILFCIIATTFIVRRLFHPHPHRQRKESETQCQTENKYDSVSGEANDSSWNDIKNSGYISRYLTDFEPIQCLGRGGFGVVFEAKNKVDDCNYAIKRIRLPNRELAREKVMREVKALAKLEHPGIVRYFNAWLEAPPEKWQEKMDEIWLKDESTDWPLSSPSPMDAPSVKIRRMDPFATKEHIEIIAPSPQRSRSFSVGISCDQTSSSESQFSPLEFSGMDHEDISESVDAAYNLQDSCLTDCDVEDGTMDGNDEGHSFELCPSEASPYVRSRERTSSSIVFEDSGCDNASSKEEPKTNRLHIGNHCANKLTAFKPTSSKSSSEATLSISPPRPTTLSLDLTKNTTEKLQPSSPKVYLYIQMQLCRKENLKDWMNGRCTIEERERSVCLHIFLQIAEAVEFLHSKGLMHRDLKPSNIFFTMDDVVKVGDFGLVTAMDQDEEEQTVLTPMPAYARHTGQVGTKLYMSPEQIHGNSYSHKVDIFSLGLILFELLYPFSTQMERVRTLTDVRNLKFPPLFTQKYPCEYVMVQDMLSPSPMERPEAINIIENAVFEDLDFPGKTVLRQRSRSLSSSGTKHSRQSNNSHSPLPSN
Sequence of AMPKα2(h) (P54646 whole entry): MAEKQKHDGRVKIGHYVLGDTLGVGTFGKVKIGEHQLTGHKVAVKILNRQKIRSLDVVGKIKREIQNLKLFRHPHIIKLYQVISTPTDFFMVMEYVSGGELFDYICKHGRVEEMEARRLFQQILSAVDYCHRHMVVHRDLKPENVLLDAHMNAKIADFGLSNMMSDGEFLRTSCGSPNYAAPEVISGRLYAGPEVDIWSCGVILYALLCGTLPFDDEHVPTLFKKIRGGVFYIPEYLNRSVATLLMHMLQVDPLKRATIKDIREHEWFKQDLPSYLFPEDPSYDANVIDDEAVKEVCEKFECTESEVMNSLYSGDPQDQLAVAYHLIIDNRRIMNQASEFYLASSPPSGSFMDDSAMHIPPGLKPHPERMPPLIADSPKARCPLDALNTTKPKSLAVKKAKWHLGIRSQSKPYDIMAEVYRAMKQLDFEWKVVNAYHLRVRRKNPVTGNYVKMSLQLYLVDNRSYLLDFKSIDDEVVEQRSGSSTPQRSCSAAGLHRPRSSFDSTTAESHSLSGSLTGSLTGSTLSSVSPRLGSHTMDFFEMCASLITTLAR
Sequence of AMPKα2(h) (Q9Y478 whole entry partner): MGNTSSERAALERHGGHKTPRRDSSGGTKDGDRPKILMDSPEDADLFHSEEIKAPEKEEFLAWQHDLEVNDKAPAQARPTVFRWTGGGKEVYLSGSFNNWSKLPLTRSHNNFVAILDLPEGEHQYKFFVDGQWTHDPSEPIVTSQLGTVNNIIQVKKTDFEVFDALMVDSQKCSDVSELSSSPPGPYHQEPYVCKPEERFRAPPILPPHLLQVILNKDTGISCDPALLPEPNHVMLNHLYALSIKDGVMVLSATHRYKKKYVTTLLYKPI
Sequence of AMPKα2(h) (P54619 whole entry partner): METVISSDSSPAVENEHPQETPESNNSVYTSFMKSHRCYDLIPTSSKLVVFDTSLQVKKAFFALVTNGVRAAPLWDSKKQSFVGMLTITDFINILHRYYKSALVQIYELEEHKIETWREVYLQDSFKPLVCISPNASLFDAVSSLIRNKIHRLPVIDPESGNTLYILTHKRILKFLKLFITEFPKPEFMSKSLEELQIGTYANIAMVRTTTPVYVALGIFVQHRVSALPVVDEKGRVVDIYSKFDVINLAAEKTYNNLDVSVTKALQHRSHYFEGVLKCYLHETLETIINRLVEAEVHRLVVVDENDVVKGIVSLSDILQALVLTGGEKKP
Sequence of Mer(h) (Q12866 21-999): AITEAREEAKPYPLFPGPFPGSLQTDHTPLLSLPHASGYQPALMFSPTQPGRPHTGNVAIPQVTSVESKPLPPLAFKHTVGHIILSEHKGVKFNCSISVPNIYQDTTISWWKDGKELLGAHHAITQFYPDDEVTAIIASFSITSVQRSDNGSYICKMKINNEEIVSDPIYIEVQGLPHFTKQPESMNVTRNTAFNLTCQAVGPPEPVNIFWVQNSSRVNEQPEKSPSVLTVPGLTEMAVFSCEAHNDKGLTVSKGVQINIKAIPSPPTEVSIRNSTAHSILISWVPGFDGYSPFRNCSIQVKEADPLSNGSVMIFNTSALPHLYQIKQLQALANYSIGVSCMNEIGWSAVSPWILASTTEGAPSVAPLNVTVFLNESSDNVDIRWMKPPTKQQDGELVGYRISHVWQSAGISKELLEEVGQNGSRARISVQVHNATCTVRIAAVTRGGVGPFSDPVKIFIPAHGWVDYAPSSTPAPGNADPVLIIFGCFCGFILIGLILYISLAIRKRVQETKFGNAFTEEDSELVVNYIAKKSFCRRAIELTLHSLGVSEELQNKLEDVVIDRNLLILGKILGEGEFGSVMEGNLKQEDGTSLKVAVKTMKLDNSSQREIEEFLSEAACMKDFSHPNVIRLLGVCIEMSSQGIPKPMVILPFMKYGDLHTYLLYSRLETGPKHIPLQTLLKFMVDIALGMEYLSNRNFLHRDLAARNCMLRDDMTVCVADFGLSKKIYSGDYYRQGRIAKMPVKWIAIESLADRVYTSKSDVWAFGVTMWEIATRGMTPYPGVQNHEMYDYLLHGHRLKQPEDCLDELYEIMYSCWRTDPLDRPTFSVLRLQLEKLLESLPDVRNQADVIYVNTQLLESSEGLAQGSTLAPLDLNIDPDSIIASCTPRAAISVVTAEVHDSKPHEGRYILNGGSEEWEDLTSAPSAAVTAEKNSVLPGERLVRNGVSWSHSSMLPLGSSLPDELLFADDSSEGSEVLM
Sequence of cKit(h) (P10721 26-976): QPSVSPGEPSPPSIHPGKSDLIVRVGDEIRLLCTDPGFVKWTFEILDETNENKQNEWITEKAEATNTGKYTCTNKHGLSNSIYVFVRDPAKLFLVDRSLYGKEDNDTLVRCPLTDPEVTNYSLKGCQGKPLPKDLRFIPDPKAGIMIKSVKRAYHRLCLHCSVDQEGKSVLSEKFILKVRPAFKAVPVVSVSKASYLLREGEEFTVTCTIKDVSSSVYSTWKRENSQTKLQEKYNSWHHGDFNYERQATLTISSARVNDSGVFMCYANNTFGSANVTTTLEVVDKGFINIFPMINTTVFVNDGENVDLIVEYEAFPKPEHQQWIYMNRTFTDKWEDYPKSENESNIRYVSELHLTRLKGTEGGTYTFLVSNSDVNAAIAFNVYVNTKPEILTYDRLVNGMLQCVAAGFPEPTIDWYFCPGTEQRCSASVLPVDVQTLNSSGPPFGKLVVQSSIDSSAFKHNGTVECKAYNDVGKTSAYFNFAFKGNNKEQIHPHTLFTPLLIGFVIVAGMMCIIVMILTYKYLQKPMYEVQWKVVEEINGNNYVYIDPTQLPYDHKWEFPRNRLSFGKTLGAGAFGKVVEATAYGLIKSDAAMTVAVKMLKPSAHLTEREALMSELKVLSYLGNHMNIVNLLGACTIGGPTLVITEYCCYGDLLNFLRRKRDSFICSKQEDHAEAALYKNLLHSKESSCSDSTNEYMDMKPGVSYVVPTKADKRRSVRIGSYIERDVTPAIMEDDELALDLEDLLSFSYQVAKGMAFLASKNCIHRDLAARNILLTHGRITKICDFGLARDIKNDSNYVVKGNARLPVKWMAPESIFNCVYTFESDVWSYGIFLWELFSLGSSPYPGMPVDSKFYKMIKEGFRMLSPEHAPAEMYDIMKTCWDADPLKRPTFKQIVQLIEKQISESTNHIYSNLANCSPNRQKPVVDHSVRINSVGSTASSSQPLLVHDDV
Sequence of PDHK4(h) (Q16654 whole entry): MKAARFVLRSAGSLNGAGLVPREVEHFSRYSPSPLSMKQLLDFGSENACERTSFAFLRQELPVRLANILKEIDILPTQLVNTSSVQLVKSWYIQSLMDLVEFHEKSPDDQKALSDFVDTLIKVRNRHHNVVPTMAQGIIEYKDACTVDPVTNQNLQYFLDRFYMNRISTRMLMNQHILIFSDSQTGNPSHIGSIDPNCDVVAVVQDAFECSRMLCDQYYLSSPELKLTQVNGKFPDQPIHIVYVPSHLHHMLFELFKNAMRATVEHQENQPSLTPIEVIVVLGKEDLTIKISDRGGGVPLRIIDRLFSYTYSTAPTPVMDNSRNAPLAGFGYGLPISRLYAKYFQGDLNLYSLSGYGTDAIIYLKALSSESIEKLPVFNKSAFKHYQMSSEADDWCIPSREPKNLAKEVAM
Sequence of SAPK2a(T106M)(h) (Q16539 whole entry T106M): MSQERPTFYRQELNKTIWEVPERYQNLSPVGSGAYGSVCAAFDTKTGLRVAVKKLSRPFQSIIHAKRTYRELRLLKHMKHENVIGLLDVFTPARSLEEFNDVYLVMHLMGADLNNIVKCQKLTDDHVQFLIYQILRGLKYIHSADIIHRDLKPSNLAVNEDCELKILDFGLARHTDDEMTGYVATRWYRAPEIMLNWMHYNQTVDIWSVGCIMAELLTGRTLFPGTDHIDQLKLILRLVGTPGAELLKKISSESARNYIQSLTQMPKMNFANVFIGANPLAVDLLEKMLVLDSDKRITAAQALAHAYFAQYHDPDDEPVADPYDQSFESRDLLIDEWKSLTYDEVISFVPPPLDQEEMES

With C[C@H](NC(=O)c1c[nH]c2ccc(-c3ccc4nc(NC(=O)C5CC5)sc4c3)cc12)c1cccc(F)c1 [Compound 34, (S)-5-(2-(cyclopropanecarboxamido)benzo[d]thiazol-6-yl)-N-(1-(3-fluorophenyl)ethyl)-1H-indole-3-carboxamide] the EC50 (HT-29 cells; [1]) was < 1 nM, the EC50 (HT-29 cells; [2]) was 0.117 nM and the Inhibition ratio (Fgr(h)) was 42%. For the same molecule, the Inhibition ratio (GRK1(h)) was −24%, the Inhibition ratio (PI3KC2a(h)) was 16% and the Inhibition ratio (AMPKα1(h)) was 4%. It also gave an Inhibition ratio (AMPKα2(h)) of 13%, an Inhibition ratio (PKBγ(h)) of 11% and an Inhibition ratio (PKCγ(h)) of 7%. For the same molecule, the Inhibition ratio (PKCη(h)) was −3%, the Inhibition ratio (PKCμ(h)) was 6% and the Inhibition ratio (CaMKI(h)) was 5%. The Inhibition ratio (CaMKIγ(h)) was 7%, the Inhibition ratio (PRKG2(h)) was 3% and the Inhibition ratio (LRRK2(h)) was 30%. For the same molecule, the Inhibition ratio (CDK17/cyclinY(h)) was −11%, the Inhibition ratio (Ret(V804M)(h)) was 98% and the Inhibition ratio (SAPK2a(T106M)(h)) was 63%. For the same molecule, the Inhibition ratio (MELK(h)) was 36%, the Inhibition ratio (Mer(h)) was 97% and the Inhibition ratio (SGK3(h)) was −1%. The Inhibition ratio (cKit(h)) was 4%, the Inhibition ratio (CLIK1(h)) was 22% and the Inhibition ratio (CLK2(h)) was 77%. The Inhibition ratio (TNIK(h)) was 99%, the Inhibition ratio (EphA8(h)) was 85% and the Inhibition ratio (PDHK4(h)) was 72%. For the same molecule, the Inhibition ratio (PEK(h)) was 1% and the Inhibition ratio (FGFR2(h)) was 63%.

With C[C@H](NC(=O)c1cn(C)c2ccc(-c3ccn4nc(NC(=O)C5CC5)nc4c3)cc12)c1cccc(F)c1 [Compound 94, (S)-5-(2-(cyclopropanecarboxamido)-[1,2,4]triazolo[1,5-a]pyridin-7-yl)-N-(1-(3-fluorophenyl)ethyl)-1-methyl-1H-indole-3-carboxamide] the EC50 (HT-29 cells; [1]) was < 1 nM, the EC50 (HT-29 cells; [2]) was 0.012 nM and the Inhibition ratio/% (Fgr(h)) was 8%. It also gave an Inhibition ratio/% (GRK1(h)) of 52%, an Inhibition ratio/% (PI3KC2a(h)) of 40% and an Inhibition ratio/% (AMPKα1(h)) of 57%. The Inhibition ratio/% (AMPKα2(h)) was 16%, the Inhibition ratio/% (PKBγ(h)) was 31% and the Inhibition ratio/% (PKCγ(h)) was 47%. The Inhibition ratio/% (PKCη(h)) was 27%, the Inhibition ratio/% (PKCμ(h)) was 50% and the Inhibition ratio/% (CaMKI(h)) was 49%. It also gave an Inhibition ratio/% (CaMKIγ(h)) of −13%, an Inhibition ratio/% (PRKG2(h)) of −9% and an Inhibition ratio/% (LRRK2(h)) of 10%. It also gave an Inhibition ratio/% (CDK17/cyclinY(h)) of 70%, an Inhibition ratio/% (Ret(V804M)(h)) of 45% and an Inhibition ratio/% (SAPK2a(T106M)(h)) of −20%. For the same molecule, the Inhibition ratio/% (MELK(h)) was 1%, the Inhibition ratio/% (Mer(h)) was −6% and the Inhibition ratio/% (SGK3(h)) was 41%. It also gave an Inhibition ratio/% (cKit(h)) of 21%, an Inhibition ratio/% (CLIK1(h)) of 22% and an Inhibition ratio/% (CLK2(h)) of 77%. The Inhibition ratio/% (TNIK(h)) was 59%, the Inhibition ratio/% (EphA8(h)) was 4% and the Inhibition ratio/% (PDHK4(h)) was −18%. For the same molecule, the Inhibition ratio/% (PEK(h)) was 36% and the Inhibition ratio/% (FGFR2(h)) was −13%.

Source: patent US20230365546A1, “5-SUBSTITUTED INDOLE 3-AMIDE DERIVATIVES, PREPARATION METHOD AND USE THEREOF” (ORIGIANT PHARMACEUTICAL CO., LTD, priority 2020, published 2023)
